{"source": "patent US20260242320A1", "about": "“USE OF CANNABIDIOL DERIVATIVE IN PREPARATION OF MEDICAMENT” (priority 2023, published 2026)", "key": {"Hif-1α": {"tested_on": "Hif-1α", "experiment": "Hif-1α western blot in mPFC after chronic morphine", "format": "in vivo", "settings": "mice", "from_the_text": "ImageJ was used for densitometric analysis."}, "[1]": {"tested_on": "LPS-induced proinflammatory factor nitric oxide (NO) in immunocompetent BV-2 cells", "experiment": "NO assay: inhibition of LPS-induced NO overproduction in BV-2 cells", "format": "cell-based", "settings": "Mus musculus; BV-2 cells, LPS 200 ng/mL, 24 h; read-out: Antineuroinflammatory activity (IC50 inhibiting LPS-induced NO)", "protocol": "BV-2 cells were seeded at a density of 5×10^4 cells per milliliter in 96-well plates. After 24 h incubation, the media was removed and changed to DMEM without FBS and penicillin-streptomycin. LPS (200 ng/mL) and different concentrations of compounds were added. After 24 h treatment, 100 μL of media was transferred to flat black 96-well micro fluor plates, and then, 10 μL of 0.05 mg/mL 2,3-diaminonaphthalene was added and incubated in the dark for 15 min. 5 μL of NaOH (3 M) was subsequently added to each well to quench the reaction. NO inhibition ratio was analyzed by a SYNERGY H1 Microplate Reader (BioTek Instruments, Carlsbad, CA, USA) with excitation at 360 nm and emission at 430 nm. The fluorescence value of the LPS-treated group was set as 100%."}, "[2]": {"tested_on": "3×Tg Alzheimer's disease mice", "experiment": "Learning and memory tests in Alzheimer's disease model mice (Morris water maze, Y-maze)", "format": "in vivo", "settings": "i.p., 45 days", "from_the_text": "For Alzheimer's disease behavioral experiments (Morris water maze, open field experiment, novel object recognition, Y-maze, and elevated cross maze), triple transgenic mouse models (B6:129-Psen1tm1Mpm Tg (APPswe, tauP301L) 1Lfa/J, 3×Tg) were purchased from the Jax Laboratory in the United States. The wild-type mice (C57BL/6J, WT) were purchased from Beijing Vital River Laboratory Animal Technology Co., Ltd. After 45 days of intraperitoneal injection of CIAC001, all mice were subjected to subsequent behavioral experiments. In order to minimize the use of mice, the mice are first tested for sufficient physical strength and normal mental states. Only one behavioral experiment is conducted per day based on the following schedule: day 1: open field test; day 2-3: novel object recognition; day 3: elevated plus maze; day 4: Y-maze; day 5-13: Morris water maze. […]\nPlace navigation training was performed from days 1 to 5. […] The time taken for the mouse to find the platform was recorded, representing the mouse's escape latency. […]\nThe spatial exploration test was conducted 24 hours and 72 hours after completion of place navigation training. The test conducted at 24 hours assessed short-term memory, while the test performed at 72 hours assessed long-term memory. […]"}, "[3]": {"experiment": "Y-maze test of short-term memory", "format": "in vivo, mice", "settings": "CIAC001 20 mg/kg i.p.; THC 10 mg/kg i.p.", "protocol": "Mice were tested for short-term memory using a Y-maze task. Briefly, mice were placed into the Y-maze for 10 min once daily to habituate the apparatus for two consecutive days. After daily habituation, the mice were then treated with CIAC001 (20 mg/kg) or THC (10 mg/kg). On the 3rd day, mice were pretreated with CIAC001 or THC 45 min before the Y-maze test. Next, the “new arm” was blocked, and mice had 5 min to freely explore two arms (the “start arm” and the “old arm”, FIG. 8F). Mice were then removed from the Y-maze and placed into the cages for 2 min. During the test phase, mice were allowed to freely explore all three arms for 2 min, and the time spent in each arm was recorded and analyzed using the Noldus analyzing software. To eliminate olfactory interference, the Y-maze was wiped off with 70% alcohol after each test."}, "morphine-dependent mice": {"tested_on": "morphine-dependent mice", "experiment": "Naloxone-precipitated morphine withdrawal jumps", "format": "in vivo", "settings": "2 μg/kg, 20 μg/kg, 0.2 mg/kg i.p., 0.2 mg/kg", "protocol": "Mice were intraperitoneally injected with an escalating dose of morphine three times daily for 3 days (5, 20, and 40 mg/kg) to induce addiction. On the fourth day, mice were given morphine (40 mg/kg) or vehicle (5 mL/kg). […] The withdrawal was precipitated by naloxone. Each mouse was placed into a transparent plastic box immediately, and the number of jumps was recorded for 15 min."}}, "note": "“Also recorded” adds a separate entry of the source."}
{"smiles": "C=C(C)[C@@H]1CCC(C)=C[C@H]1c1c(O)cc(C(C)n2nccn2)cc1O", "note": "(stereo partly drawn) [CIAC001, (1′R,2′R)-4-(1-(2H-1,2,3-Triazol-2-yl)ethyl)-5′-methyl-2′-(prop-1-en-2-yl)-1′,2′,3′,4′-tetrahydro-[1,1′-biphenyl]-2,6-diol]", "values": [{"measurement": "chronic morphine-induced Hif-1α overexpression in mPFC", "setting": "Hif-1α", "value": "inhibit chronic morphine-induced Hif-1α overexpression"}, {"measurement": "IC50", "setting": "[1]", "value": "2500 ± 700", "unit": "nM"}, {"measurement": "learning and memory abilities of Alzheimer's disease mice", "setting": "[2]", "value": "improves learning and memory abilities of Alzheimer's disease mice at a lower dose than cannabidiol"}, {"measurement": "time spent on the new arm (Y maze)", "setting": "[3]", "value": "did not affect the time mice spent on the new arm"}, {"measurement": "naloxone-precipitated withdrawal jumps", "setting": "morphine-dependent mice", "value": "dose-dependently attenuated; also recorded: ameliorated"}]}
